These results are taken from ChEMBL document CHEMBL1201862, “PubChem BioAssay data set” (2004).

Test systems include MDA-N; MCF7; UO-31; A498; SF-268; SK-MEL-5; K562; EKVX; SK-MEL-28; BT-549; MDA-MB-435; HCT-15; RXF 393; HOP-62; NCI-H226; SN12C; HOP-92; MOLT-4; UACC-62.
Holding throughout (experiment): inhibition of tumour cell growth, NCI panel, 48 h

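Step 1: Grow cells in 96-well plates. Step 2: Expose to compound for 48 hours at 5 concentrations. Step 3: Interpolate endpoints linearly; if unreached, use highest concentration. GI50 = concentration required for 50% inhibition of growth.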 Active and inactive are the calls of the source. Rule as the data show it: active = GI50 up to about 1.1 µM and inactive = higher.

On to `Cc1cc2[nH]c3c(C#N)c(-c4ccccc4)c(/N=N/c4cccc(C(F)(F)F)c4)c(=O)n3c2cc1C`, for which the GI50 in the assay on MDA-N is 28.3 µM (inactive); in the assay with MCF7 it was 50.4 µM (inactive); in the assay with UO-31, 31.3 µM (inactive); in the assay on A498, 88.5 µM (inactive); in the assay on SF-268 it was 32.6 µM (inactive); in the assay on SK-MEL-5 it was 15.7 µM (inactive). The GI50 in the assay with K562 was 0.0382 µM (active); with EKVX it was 23.4 µM (inactive); with SK-MEL-28, 39 µM (inactive); with BT-549, 44.2 µM (inactive); in the assay with MDA-MB-435 it was 38.8 µM (inactive); in the assay on HCT-15 it was 37 µM. The GI50 with RXF 393 was 54.5 µM (inactive); with HOP-62 it was > 100 µM (inactive); with NCI-H226 it was 25.2 µM (inactive); in the assay with SN12C, 27.9 µM (inactive).
As for `CC(=O)c1cccc(Nc2nc3ccccc3c3occc23)c1`, the GI50 in the assay on HOP-92 is 9.64 µM (inactive); in the assay with MCF7, 25.1 µM (inactive); in the assay with A498 it was 9.98 µM (inactive); with SF-268, 22.2 µM (inactive); with SK-MEL-5, 12.7 µM (inactive); in the assay with K562, > 100 µM (inactive). Also, the GI50 in the assay with EKVX was 22 µM (inactive); with SK-MEL-28 it was 27.3 µM (inactive); with BT-549 it was 15.2 µM (inactive); in the assay with MDA-MB-435 it was 33.3 µM (inactive); in the assay with HCT-15, 36.4 µM; in the assay with RXF 393, 10.8 µM (inactive). Further, the GI50 in the assay on HOP-62 was 14 µM (inactive); with NCI-H226, 2.03 µM (inactive); in the assay with SN12C, 13.2 µM (inactive); in the assay with MOLT-4, > 100 µM (inactive).
For the compound `O=C1c2ccccc2-c2c1c(-c1ccc(O)cc1O)nc1ccc3ccccc3c21`, the GI50 with MDA-N is > 100 µM (inactive); with MCF7 it was 79.4 µM (inactive); in the assay on UO-31, > 100 µM (inactive); in the assay on A498, > 100 µM (inactive); in the assay with SF-268, > 100 µM (inactive); with K562 it was > 100 µM (inactive). Moreover, the GI50 in the assay on EKVX is > 100 µM (inactive); in the assay with SK-MEL-28, > 100 µM (inactive); in the assay on BT-549, > 100 µM (inactive); in the assay on MDA-MB-435, > 100 µM (inactive); in the assay with HCT-15, more than 100 µM; in the assay on HOP-62, 49 µM (inactive). The GI50 in the assay with UACC-62, with NCI-H226, in the assay on SN12C and in the assay with MOLT-4 was > 100 µM (inactive) throughout.
Regarding `COc1ccc(N2C(=O)C3c4[nH]c5ccc(C)cc5c4C4CCC(C(C)(C)C)CC4C3C2=O)cc1` (stereo not given), the GI50 with MDA-N was > 10 µM (inactive); in the assay on MCF7, 33 µM (inactive); with UO-31, 17.2 µM (inactive); in the assay on SF-268 it was 13 µM (inactive); in the assay on SK-MEL-5, 20.7 µM (inactive); in the assay with K562, 13.4 µM (inactive). Besides, the GI50 in the assay on EKVX is 31 µM (inactive); in the assay with SK-MEL-28 it was 11.5 µM (inactive); with BT-549, 20.7 µM (inactive); in the assay with MDA-MB-435 it was 24.9 µM (inactive); with HCT-15 it was 27.5 µM; in the assay on RXF 393 it was 16.9 µM (inactive). For the same compound, the GI50 in the assay on HOP-62 is 13.6 µM (inactive); in the assay on UACC-62, 7.93 µM (inactive); in the assay with NCI-H226, 21.1 µM (inactive); in the assay on SN12C, 48.4 µM (inactive); with MOLT-4 it was 12.9 µM (inactive).
On to `Cc1ccc(S(=O)(=O)N/N=C2/CCC3(O)CC2(C)CCC2[C@H]3CC2(C)C)cc1` (stereo not given in full), for which the GI50 was 29.2 µM (inactive) in the assay with HOP-92; 30.7 µM (inactive) in the assay on MDA-N; 35.5 µM (inactive) in the assay with MCF7; 25.7 µM (inactive) in the assay with UO-31; 68.1 µM (inactive) in the assay with SF-268; 16.5 µM (inactive) in the assay on SK-MEL-5. Besides, the GI50 was 16.9 µM (inactive) with K562; 31.7 µM (inactive) in the assay with EKVX; 24.9 µM (inactive) in the assay on SK-MEL-28; 32.1 µM (inactive) in the assay on BT-549; 27.8 µM (inactive) with MDA-MB-435; 27.1 µM with HCT-15. Moreover, the GI50 is 43 µM (inactive) in the assay with HOP-62; 20.3 µM (inactive) with UACC-62; 27.2 µM (inactive) in the assay on NCI-H226; 33.3 µM (inactive) in the assay with SN12C; 11.4 µM (inactive) in the assay on MOLT-4.
In the case of `Cc1ccc(S(=O)(=O)/N=C(\NN)Nc2ccc(Cl)cc2)cc1`, the GI50 in the assay with HOP-92, in the assay with MDA-N, in the assay with MCF7, in the assay on UO-31, in the assay on A498 and in the assay with SK-MEL-5 was > 100 µM (inactive) throughout. In addition, the GI50 was > 100 µM (inactive) in the assay with K562; > 100 µM (inactive) with EKVX; > 100 µM (inactive) with SK-MEL-28; > 100 µM (inactive) with BT-549; more than 100 µM with HCT-15; 60.7 µM (inactive) in the assay with RXF 393. For the same compound, the GI50 in the assay on HOP-62 was > 100 µM (inactive); in the assay with UACC-62, > 100 µM (inactive); with NCI-H226, 58.3 µM (inactive); in the assay on SN12C, > 100 µM (inactive); in the assay with MOLT-4 it was > 100 µM (inactive).
As for `O=C(O)C/C=C/CC(=O)O`, the GI50 in the assay on MDA-N, in the assay with MCF7, in the assay on UO-31, with A498, in the assay with SF-268 and in the assay with SK-MEL-5 was > 100 µM (inactive) each time. The GI50 was 67.1 µM (inactive) in the assay on K562; > 100 µM (inactive) in the assay on EKVX; > 100 µM (inactive) in the assay on SK-MEL-28; > 100 µM (inactive) in the assay with BT-549; > 100 µM (inactive) in the assay on MDA-MB-435; more than 100 µM in the assay with HCT-15. Also, the GI50 with RXF 393 is > 100 µM (inactive); with HOP-62, > 100 µM (inactive); in the assay on UACC-62, > 100 µM (inactive); with NCI-H226 it was > 100 µM (inactive); with SN12C, 25.7 µM (inactive); in the assay with MOLT-4, > 100 µM (inactive).
For `CC1(C)CC(=O)C(CC2C(=O)c3ccccc3C2=O)C(=O)C1C(=O)C(=O)Nc1cccc2ccc(O)cc12` (stereo not given), the GI50 in the assay on HOP-92 was 70.3 µM (inactive); in the assay with MCF7, 32.2 µM (inactive); in the assay with UO-31 it was 33.8 µM (inactive); with A498 it was 20.8 µM (inactive); in the assay on SF-268, > 100 µM (inactive); in the assay with SK-MEL-5 it was > 100 µM (inactive). Moreover, the GI50 is 40.9 µM (inactive) in the assay with K562; 43.9 µM (inactive) with EKVX; > 100 µM (inactive) in the assay on SK-MEL-28; 15 µM (inactive) in the assay with BT-549; > 100 µM (inactive) in the assay with MDA-MB-435; 59.3 µM with HCT-15. The GI50 in the assay with UACC-62 was > 100 µM (inactive); in the assay on NCI-H226 it was 29 µM (inactive); in the assay on SN12C, > 100 µM (inactive); in the assay with MOLT-4 it was 53.5 µM (inactive).
Regarding `CC(=O)c1ccccc1NCC(=O)Nn1cnc2ccc(S(=O)(=O)Nc3ccccc3C(C)=O)cc2c1=O`, the GI50 in the assay on HOP-92, in the assay on MDA-N, in the assay with MCF7, with UO-31, in the assay with SF-268 and in the assay on K562 was > 100 µM (inactive) in each case. Further, the GI50 was > 100 µM (inactive) in the assay on EKVX; > 100 µM (inactive) in the assay with SK-MEL-28; > 100 µM (inactive) in the assay on BT-549; > 100 µM (inactive) in the assay on MDA-MB-435; more than 100 µM in the assay with HCT-15; > 100 µM (inactive) in the assay on HOP-62. For the same compound, the GI50 with UACC-62, in the assay with NCI-H226, in the assay on SN12C and in the assay with MOLT-4 was > 100 µM (inactive) each time.
For `CN(C)CCNC(=O)c1cccc(CO)c1[N+](=O)[O-]`, the GI50 in the assay on MDA-N, in the assay on MCF7, in the assay with UO-31, in the assay on A498, in the assay with SF-268 and in the assay on SK-MEL-5 was > 100 µM (inactive) each time. Also, the GI50 was > 100 µM (inactive) in the assay on K562; > 100 µM (inactive) with SK-MEL-28; > 100 µM (inactive) in the assay with BT-549; > 100 µM (inactive) with MDA-MB-435; more than 100 µM with HCT-15; > 100 µM (inactive) in the assay with HOP-62. Moreover, the GI50 in the assay with UACC-62, in the assay with NCI-H226, in the assay on SN12C and with MOLT-4 was > 100 µM (inactive) throughout.
As for `O=C(CC1C=CCS1(=O)=O)NCc1ccccc1` (stereo not given), the GI50 in the assay on HOP-92, in the assay with MDA-N, in the assay with MCF7, in the assay with UO-31, in the assay with SF-268 and in the assay on SK-MEL-5 was > 100 µM (inactive) each time. Also, the GI50 with K562 is > 100 µM (inactive); in the assay on EKVX, > 100 µM (inactive); in the assay on SK-MEL-28, > 100 µM (inactive); with BT-549, > 100 µM (inactive); in the assay on MDA-MB-435 it was > 100 µM (inactive); with HCT-15, more than 100 µM. For the same compound, the GI50 in the assay with RXF 393, with HOP-62, in the assay with UACC-62, in the assay on NCI-H226, with SN12C and with MOLT-4 was > 100 µM (inactive) in each case.
Take `Cc1ccc(/N=N/N(C)C(C)C(O)Cc2ccccc2)cc1` (stereo not given): the GI50 was 23.7 µM (inactive) in the assay on MDA-N; 47.9 µM (inactive) in the assay on MCF7; 18 µM (inactive) with UO-31; 46 µM (inactive) in the assay on SF-268; 39.6 µM (inactive) in the assay with SK-MEL-5; 39.3 µM (inactive) in the assay with K562. Besides, the GI50 with EKVX was 62.2 µM (inactive); with SK-MEL-28, 65.8 µM (inactive); with BT-549 it was 41 µM (inactive); with MDA-MB-435 it was 35.9 µM (inactive); in the assay with HCT-15, 41 µM; in the assay with RXF 393, 40.6 µM (inactive). Also, the GI50 in the assay with HOP-62 is > 100 µM (inactive); in the assay on UACC-62, 52.1 µM (inactive); with NCI-H226 it was > 100 µM (inactive); with SN12C, 27.9 µM (inactive); in the assay on MOLT-4, 33.7 µM (inactive).
